Measured values: patent US8222260B2, “Substituted 6-anilinopurine derivatives as inhibitors of cytokinin oxidase/dehydrogenase and preparations containing these derivatives” (Univerzita Palackego V Olomouci, priority 2007, dated 2012)
Values joined by “and” are separate entries in the source; they are usually repeats but may differ in a detail not shown here. Identical values can stand only once.

Assays:
[1] = system: Human diploid fibroblasts HCA; test: Anti-aging activity: senescence-associated beta-galactosidase in human fibroblasts; assay type: cell-based; details: for Senescent Cells (%) HCA passage 25: passage 25, cells expressing senescence-associated beta-galactosidase; for Senescent Cells (%) HCA passage 50: passage 50, cells expressing senescence-associated beta-galactosidase; for Senescent Cells (%) HCA passage 80: passage 80, cells expressing senescence-associated beta-galactosidase
Protocol: In this example, effects of the compounds of this invention on the activity of a senescence biomarker senescence-associated β-galactosidase was studied. Human diploid fibroblasts HCA of various passage levels were used for this purpose. The tested compounds were added to the medium at each passage. After the incubation period, cells were washed with PBS and fixed with 2% formaldehyde and 0.2% glutaraldehyde in PBS. After another wash with PBS, they were incubated with the staining solution comprising potassium ferricyanide (5 mM), potassium ferrocyanide (5 mM), MgCl2 (2 mM), X-gal (5-bromo-4-chloro-3-indolyl-β-D-galactopyranoside) (1 mg/ml), in citric/phosphate buffer (pH 6.0) at 37° C. (without CO2) for at least 1 hour. Following the incubation period, the numbers of cells expressing senescence-associated β-galactosidase (blue cells) were counted using light microscope.

[2] = target: T1, AHK3 (Arabidopsis thaliana, UniProt Q9C5U1); test: Activation of cytokinin receptors (E. coli KMI001 beta-galactosidase reporter); assay type: cell-based; details: 28 h incubation; n.a. means no activation
T1 sequence (Q9C5U1 1-1036): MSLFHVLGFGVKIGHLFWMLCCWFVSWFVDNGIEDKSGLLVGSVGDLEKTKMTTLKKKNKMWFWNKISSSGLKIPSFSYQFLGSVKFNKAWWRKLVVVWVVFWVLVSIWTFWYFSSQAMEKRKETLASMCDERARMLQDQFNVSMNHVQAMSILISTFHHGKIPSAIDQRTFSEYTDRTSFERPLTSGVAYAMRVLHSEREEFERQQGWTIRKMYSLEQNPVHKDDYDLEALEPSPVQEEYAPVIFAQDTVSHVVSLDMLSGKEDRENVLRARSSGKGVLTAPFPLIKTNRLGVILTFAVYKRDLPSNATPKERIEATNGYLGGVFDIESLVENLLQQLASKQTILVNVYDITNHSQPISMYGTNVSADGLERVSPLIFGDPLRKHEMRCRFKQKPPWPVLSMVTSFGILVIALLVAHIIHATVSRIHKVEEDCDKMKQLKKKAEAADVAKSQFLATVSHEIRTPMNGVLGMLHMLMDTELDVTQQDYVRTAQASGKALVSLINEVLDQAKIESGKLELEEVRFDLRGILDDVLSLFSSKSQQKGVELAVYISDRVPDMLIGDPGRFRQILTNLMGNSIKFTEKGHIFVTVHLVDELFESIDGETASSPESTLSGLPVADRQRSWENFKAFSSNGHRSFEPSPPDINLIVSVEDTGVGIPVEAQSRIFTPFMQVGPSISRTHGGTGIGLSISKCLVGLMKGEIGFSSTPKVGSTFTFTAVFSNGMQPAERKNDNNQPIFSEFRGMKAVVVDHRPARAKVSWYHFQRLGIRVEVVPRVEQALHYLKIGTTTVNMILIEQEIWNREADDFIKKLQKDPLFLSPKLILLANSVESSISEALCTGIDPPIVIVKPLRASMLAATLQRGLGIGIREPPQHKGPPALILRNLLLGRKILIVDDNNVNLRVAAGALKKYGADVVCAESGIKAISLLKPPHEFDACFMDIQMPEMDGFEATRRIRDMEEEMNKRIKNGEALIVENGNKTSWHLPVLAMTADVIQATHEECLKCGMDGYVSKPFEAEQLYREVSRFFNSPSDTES
Protocol: Escherichia coli strains KMI001 harbouring the plasmid […]4 or […]3 were grown overnight at 25° C. in M9 media enriched with 0.1% casamino acids to OD600 1. The preculture was diluted 1:600 in 1 ml M9 medium containing 0.1% casamino acids and 1 μl stock solution of either the tested compound (10^-7 M-5×10^-5 M) or solvent control (DMSO, ethanol, methanol) were added. The cultures were further grown at 25° C. in microtiter plate, 200 μl per well. […] The cultures were centrifuged and 50 μl aliquots of the supernatant were transferred to microtiter plate containing 2 μl 150 mM 4-methyl umbelliferyl galactoside which was subsequently incubated for 1 h at 37° C. The reaction was stopped by adding 100 μl 0.2 M Na2CO3. […] The EC50 value, the compound concentration activating the receptor to 50%, was calculated from the obtained dose response curves. The values shown in Table 10 are means of three replicates and the entire test was repeated at least twice.

[3] = system: cytokinin-dependent tobacco callus Nicotiana tabacum L. cv. Wisconsin 38; test: Tobacco callus biotest (plant cell division); assay type: cell-based; details: for Activity (%) [10^−5 mol · l^−1 K = 100%]: at the concentration with highest activity, relative to 10^−5 M kinetin
Protocol: The stimulatory effect of the newly prepared derivatives was tested in the calus biotest using cytokinin-dependent tobacco callus. Cytokinin-dependent tobacco callus Nicotiana tabacum L. cv. Wisconsin 38 was maintained at 25° C. in darkness on modified Murashige-Skoog medium, containing per 1 liter: 4 μmol of nicotinic acid, 2.4 μmol of pyridoxine hydrochloride, 1.2 μmol of thiamine, 26.6 μmol of glycine, 1.37 μmol of glutamine, 1.8 μmol of myo-inositol, 30 g of sucrose, 8 g of agar, 5.37 μmol of NAA and 0.5 μmol of 6-benzylaminopurine. Subcultivation was carried out every three weeks. Fourteen days before the bioassay, the callus tissue was transferred to the media without 6-benzylaminopurine. The biological activity was determined from the increase of the fresh callus weight after four weeks of cultivation. Five replicates were prepared for each concentration of the compound tested and the entire test was repeated twice. […] The compounds to be tested were dissolved in dimethylsulfoxide (DMSO) and the solution brought up to 10^−3 M with distilled water.
From the obtained data, the concentration with the highest activity was selected for each compound tested. Relative activity of the compound at this concentration was calculated (Table 11). The activity obtained for 10^−5 M of the control substance kinetin (K) was postulated as 100%.

[4] = system: Amaranthus caudatus cotyledon/hypocotyl explants; test: Amaranthus bioassay (betacyanin content); assay type: cell-based, Amaranthus caudatus var. atropurpurea; details: for Activity (%) [10^−5 mol · l^−1 K = 100%]: at the concentration with highest activity, relative to 10^−5 M kinetin
Protocol: The standard Amaranthus bioassay was performed with the following modifications. The seeds of Amaranthus caudatus var. atropurpurea were surface-sterilised in 10% (w/v) N-chlorobenzenesulfonamide for 10 min and washed 5 times with deionized water. They were placed in 15 cm Petri dishes containing paper tissues saturated with deionized water. After 72 h of cultivation at 25° C. in darkness, the roots of the seedlings were cut off. The explants, consisting of two cotyledons and hypocotyls, were placed in 5 cm Petri dishes onto two layers of filtration paper soaked with 1 ml of the incubation medium containing 10 μmol of Na2HPO4—KH2PO4, pH 6.8, 5 μmol of tyrosine and the compound to be tested. There were 20 explants per dish. The procedure was carried out under green safe light in a darkroom. After 48 h of incubation at 25° C. in darkness, betacyanin was extracted by freezing the explants in 4 ml 3.33 μM acetic acid. The concentration of betacyanin was determined from the absorbances at 537 nm and 620 nm as follows: ΔA=A537nm−A620nm. The values ΔA were plotted against the concentration tested, are means of five replicates and the entire test was repeated at least twice. […] The compounds to be tested were dissolved in dimethylsulfoxide (DMSO) and the solution brought up to 10^−3M with distilled water.
From the obtained data, the concentration with the highest activity was selected for each compound tested. Relative activity of the compound at this concentration was calculated (Tab. 12). The activity obtained for 10^−5 M kinetin (K) was postulated as 100%.

Row | Structure (SMILES) | Senescent Cells (%) HCA passage 25 [1] | Senescent Cells (%) HCA passage 50 [1] | Senescent Cells (%) HCA passage 80 [1] | EC50 [2] | Activity (%) [10^−5 mol · l^−1 K = 100%] [4] | other results
1 | COc1ccc(Nc2nc(Cl)nc3nc[nH]c23)cc1 [2-chloro-6-(4-methoxyanilino)purine] | 4% | 3% | 26% |  |  | 
2 | Sc1nc(Nc2ccc(Cl)cc2)c2nc[nH]c2n1 [Compound 81] |  |  |  | 10.2 µM | 122.9% | Activity (%) [10^−5 mol · l^−1 K = 100%] [3]: 115.7%
3 | Nc1nc(Nc2ccc(Cl)cc2)c2nc[nH]c2n1 [Compound 67] |  |  |  | 8.1 µM | 141.7% | 
4 | Nc1nc(Nc2ccc(F)cc2)c2nc[nH]c2n1 [Compound 70] |  |  |  | 19.5 µM | 136% | 
5 | Nc1nc(Nc2ccc(O)cc2)c2nc[nH]c2n1 [2-amino-(4-hydroanilino)purine] | 3% | 4% | 21% |  |  | 
6 | COc1ccccc1Nc1nc(N)nc2[nH]cnc12 [Compound 74] |  |  |  | 29 µM | 108% | 
7 | CSc1nc(Nc2ccc(O)cc2)c2[nH]cnc2n1 [2-methylthio-6-(4-hydroxyanilino)purine] | 4% | 6% | 34% |  |  | 
8 | COc1cc(Nc2nc(Cl)nc3nc[nH]c23)ccc1O | 4% | 6% |  |  |  | 
9 | COc1cccc(Nc2nc(F)nc3nc[nH]c23)c1 [2-fluoro-6-(3-methoxyanilino)purine] | 3% | 5% | 29% |  |  | 
10 | COc1ccc(Nc2nc(N)nc3[nH]cnc23)cc1 [Compound 76] |  |  |  | 26.3 µM |  | 
11 | Nc1nc(Nc2ccc(O)cc2)c2[nH]cnc2n1 [2-amino-(4-hydroxyanilino)purine] | 4% | 4% | 18% |  |  | 
12 | Fc1ccc(Nc2nc(Cl)nc3[nH]cnc23)cc1 [Compound 7] |  |  |  |  | 104% | Activity (%) [10^−5 mol · l^−1 K = 100%] [3]: 112%
13 | COc1ccccc1Nc1nc(Cl)nc2nc[nH]c12 [Compound 11] |  |  |  |  | 110.3% and 121.7% | Activity (%) [10^−5 mol · l^−1 K = 100%] [3]: 109%; concentration with highest activity ([3]; fresh weight after four weeks): 10^−5 mol · l^−1; concentration with highest activity ([4]; 48 h): 10^−5 mol · l^−1
14 | Oc1ccc(Nc2nc(F)nc3nc[nH]c23)cc1 [2-fluoro-6-(4-hydroxyanilino)purine] | 3% | 4% | 18% |  |  | 
15 | COc1cccc(Nc2nc(Cl)nc3nc[nH]c23)c1 [2-chloro-6-(3-methoxyanilino)purine] | 5% | 5% | 24% |  |  | 
16 | COc1cccc(Nc2nc(N)nc3nc[nH]c23)c1 [2-amino-6-(3-methoxyanilino)purine] | 4% | 4% | 22% |  |  | 
17 | COc1ccc(Nc2nc(F)nc3[nH]cnc23)cc1 [Compound 52] |  |  |  | 18.9 µM |  | Activity (%) [10^−5 mol · l^−1 K = 100%] [3]: 105%
18 | COc1ccc(Nc2nc(Cl)nc3[nH]cnc23)cc1 [Compound 13] |  |  |  | 33.1 µM |  | 
19 | Fc1ccc(Nc2nc(F)nc3[nH]cnc23)cc1 [Compound 46] |  |  |  | 22.5 µM | 109% | Activity (%) [10^−5 mol · l^−1 K = 100%] [3]: 110.7%
